GI50 data for 36 molecules are collected here from US12655150B2 (Cedilla Therapeutics, Inc., priority 2021, dated 2026).

Some results are limits rather than exact numbers.

In this experiment the test system is NCI-H226. The experiment in a line: 72H TEAD Proliferation Assay (Cell Titer Glo 2.0). It counts as cell-based. Particulars: Homo sapiens, NCI-H226, 72 h, CTG 2.0, cell line not given (NCI-H226 responsive, NCI-H28 non-responsive). Put shortly: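 Growth read-out is ATP luminescence (CellTiter-Glo 2.0) after 72 h compound exposure, corrected for no-CTG background and day-0 values, with GI50 from nonlinear regression. Sensitive line NCI-H226 (NF2-deficient); non-responsive NCI-H28 (NF2 wild type) distinguishes TEAD-driven from nonspecific growth inhibition.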
Background: ATP-based viability assays read luminescence as a measure of living cells.

Regarding `O=C(O)c1ccc2c(OC(F)F)cc(-c3ccc(C(F)(F)F)cc3)nc2c1` [I-331, 4-(Difluoromethoxy)-2-(4-(trifluoromethyl)phenyl)quinoline-7-carboxylic acid], the GI50 was ≤ 1000 nM.

As for `CC[C@H](CO)NC(=O)c1ccc2c(OC)cc(-c3ccc(C(F)(F)F)cc3C)nc2c1` [I-336, (R)—N-(1-hydroxybutan-2-yl)-4-methoxy-2-(2-methyl-4-(trifluoromethyl)phenyl)quinoline-7-carboxamide], the GI50 was ≤ 1000 nM.

As to `COc1cc(-c2ccc(C(F)(F)F)cc2F)nc2cc(C(=O)N[C@H](C)CO)ccc12` [I-337, (R)-2-(2-fluoro-4-(trifluoromethyl)phenyl)-N-(1-hydroxypropan-2-yl)-4-methoxyquinoline-7-carboxamide], the GI50 is ≤ 1000 nM.

The molecule `CC[C@H](CO)NC(=O)c1ccc2c(OC)cc(-c3ccc(C(F)(F)F)cc3C(F)(F)F)nc2c1` [I-338, (R)-2-(2,4-bis(trifluoromethyl)phenyl)-N-(1-hydroxybutan-2-yl)-4-methoxyquinoline-7-carboxamide] had a GI50 of 1000 to 5000 nM.

For the molecule `CC[C@H](CO)NC(=O)c1ccc2c(OC)cc(-c3ccc(C(F)(F)F)cc3Cl)nc2c1` [I-341, (R)-2-(2-chloro-4-(trifluoromethyl)phenyl)-N-(1-hydroxybutan-2-yl)-4-methoxyquinoline-7-carboxamide], the 50% growth inhibitory concentration (GI50) is ≤ 1000 nM.

`CC[C@H](CO)NC(=O)c1ccc2c(OC)cc(-c3ccc(C(F)(F)F)cc3OC)nc2c1` [I-342, (R)—N-(1-hydroxybutan-2-yl)-4-methoxy-2-(2-methoxy-4-(trifluoromethyl)phenyl)quinoline-7-carboxamide] returned a concentration for 50% growth inhibition (GI50) of 1000 to 5000 nM.

For `COc1cc(-c2ccc(C(F)(F)F)cc2)nc2cc(C(=O)N[C@@H](CO)C(C)C)ccc12` [I-343, (R)—N-(1-hydroxy-3-methylbutan-2-yl)-4-methoxy-2-(4-(trifluoromethyl)phenyl)quinoline-7-carboxamide], the GI50 is ≤ 1000 nM.

On to `COc1cc(-c2ccc(C(F)(F)F)cc2)nc2cc(C(=O)N[C@@H](CO)C3CC3)ccc12` [I-344, (R)—N-(1-cyclopropyl-2-hydroxyethyl)-4-methoxy-2-(4-(trifluoromethyl)phenyl)quinoline-7-carboxamide], for which the GI50 is ≤ 1000 nM.

Consider `COc1cc(-c2ccc(C(F)(F)F)cc2)nc2cc(C(=O)N[C@@H](CO)c3ccccc3)ccc12` [I-345, (R)—N-(2-hydroxy-1-phenylethyl)-4-methoxy-2-(4-(trifluoromethyl)phenyl)quinoline-7-carboxamide], for which the 50% growth inhibitory concentration (GI50) was ≤ 1000 nM.

Turning to `COc1cc(-c2ccc(C(F)(F)F)cc2)nc2cc(C(=O)N[C@@H](C)c3cccc(C(=O)O)c3)ccc12` [I-347, (S)-3-(1-(4-methoxy-2-(4-(trifluoromethyl)phenyl)quinoline-7-carboxamido)ethyl)benzoic acid], the 50% growth inhibitory concentration (GI50) lay in the range of 5000 to 10000 nM.

On to `COc1cccc([C@H](C)NC(=O)c2ccc3c(OC)cc(-c4ccc(C(F)(F)F)cc4)nc3c2)c1` [I-348, (S)-4-methoxy-N-(1-(3-methoxyphenyl)ethyl)-2-(4-(trifluoromethyl)phenyl)quinoline-7-carboxamide], for which the GI50 is ≤ 1000 nM.

Consider `COc1cc(-c2ccc(C(F)(F)F)cc2)nc2cc(C(=O)N[C@@H](C)c3cccc(O)c3)ccc12` [I-349, (S)—N-(1-(3-hydroxyphenyl)ethyl)-4-methoxy-2-(4-(trifluoromethyl)phenyl)quinoline-7-carboxamide], for which the concentration for 50% growth inhibition (GI50) was ≤ 1000 nM.

With `COc1cc(-c2ccc(C(F)(F)F)cc2)nc2cc(C(=O)N[C@@H](C)c3cccc(N)c3)ccc12` [I-350, (S)—N-(1-(3-aminophenyl)ethyl)-4-methoxy-2-(4-(trifluoromethyl)phenyl)quinoline-7-carboxamide], the concentration for 50% growth inhibition (GI50) is ≤ 1000 nM.

In the case of `COc1cc(-c2ccc(C(F)(F)F)cc2)nc2cc(C(=O)N[C@@H](C)c3ccccc3)ccc12` [I-351, (S)-4-methoxy-N-(1-phenylethyl)-2-(4-(trifluoromethyl)phenyl)quinoline-7-carboxamide], the 50% growth inhibitory concentration (GI50) is ≤ 1000 nM.

In turn, `COc1cc(-c2ccc(C(F)(F)F)cc2)nc2cc(C(=O)NC(C)(C)CO)ccc12` [I-352, N-(1-hydroxy-2-methylpropan-2-yl)-4-methoxy-2-(4-(trifluoromethyl)phenyl)quinoline-7-carboxamide] returned a GI50 of 1000 to 5000 nM.

`COc1cc(-c2ccc(C(F)(F)F)cc2)nc2cc(C(=O)NC3(CO)CC3)ccc12` [I-353, N-(1-(hydroxymethyl)cyclopropyl)-4-methoxy-2-(4-(trifluoromethyl)phenyl)quinoline-7-carboxamide] showed a concentration for 50% growth inhibition (GI50) of 1000 to 5000 nM.

`CC[C@H](CO)NC(=O)c1ccc2c(OC)cc(-c3ccc(C(F)(F)F)cn3)nc2c1` [I-358, (R)—N-(1-hydroxybutan-2-yl)-4-methoxy-2-(5-(trifluoromethyl)pyridin-2-yl)quinoline-7-carboxamide]: the 50% growth inhibitory concentration (GI50) was ≤ 1000 nM.

In turn, `COc1cc(-c2ccc(C(F)(F)F)cn2)nc2cc(C(=O)O)ccc12` [I-361, 4-methoxy-2-(5-(trifluoromethyl)pyridin-2-yl)quinoline-7-carboxylic acid] displayed a GI50 of 1000 to 5000 nM.

`COc1cc(-c2ccc(C(F)(F)F)cc2)nc2cc(C(=O)NCCC(=O)C(F)(F)F)ccc12` [I-362, 4-Methoxy-N-(4,4,4-trifluoro-3-oxobutyl)-2-(4-(trifluoromethyl)phenyl)quinoline-7-carboxamide] registered a 50% growth inhibitory concentration (GI50) of 1000 to 5000 nM.

Take `COc1cc(-c2ccc(C(F)(F)F)cc2)nc2cc(C(=O)N[C@@H](CO)c3ccc(O)cc3)ccc12` [I-363, (R)—N-(2-hydroxy-1-(4-hydroxyphenyl)ethyl)-4-methoxy-2-(4-(trifluoromethyl)phenyl)quinoline-7 carboxamide]: the 50% growth inhibitory concentration (GI50) was ≤ 1000 nM.

As to `COc1cc(-c2ccc(C(F)(F)F)cc2)nc2cc(C(=O)N[C@@H](CO)c3ccccn3)ccc12` [I-365, (R)—N-(2-hydroxy-1-(pyridin-2-yl)ethyl)-4-methoxy-2-(4-(trifluoromethyl)phenyl)quinoline-7-carboxamide], the 50% growth inhibitory concentration (GI50) is ≤ 1000 nM.

For the molecule `COc1cc(-c2ccc(C(F)(F)F)cc2)nc2cc(C(=O)N[C@@H](CO)c3ccncc3)ccc12` [I-366, (R)—N-(2-hydroxy-1-(pyridin-4-yl)ethyl)-4-methoxy-2-(4-(trifluoromethyl)phenyl)quinoline-7-carboxamide], the GI50 is ≤ 1000 nM.

Consider `COc1cc(-c2ccc(C(F)(F)F)cc2)nc2cc(C(=O)N[C@@H](CO)Cc3ccccc3)ccc12` [I-369, (R)—N-(1-hydroxy-3-phenylpropan-2-yl)-4-methoxy-2-(4-(trifluoromethyl)phenyl)quinoline-7-carboxamide], for which the concentration for 50% growth inhibition (GI50) was ≤ 1000 nM.

For the molecule `COc1cc(-c2ccc(C(F)(F)F)cc2)nc2cc(C(=O)N[C@@H](CO)CC(C)C)ccc12` [I-370, (R)—N-(1-hydroxy-4-methylpentan-2-yl)-4-methoxy-2-(4-(trifluoromethyl)phenyl)quinoline-7-carboxamide], the GI50 lay in the range of 1000 to 5000 nM.

With `COc1cc(-c2ccc(C(F)(F)F)cc2)nc2cc(C(=O)N3CCC[C@@H]3CO)ccc12` [I-371, (R)-(2-(hydroxymethyl)pyrrolidin-1-yl) (4-methoxy-2-(4-(trifluoromethyl)phenyl)quinolin-7-yl)methanone], the concentration for 50% growth inhibition (GI50) was in the range of 5000 to 10000 nM.

As for `C[C@@H](CO)NC(=O)c1ccc2c(OCC3CC3)cc(-c3ccc(C(F)(F)F)cc3)nc2c1` [I-374, (S)-4-(cyclopropylmethoxy)-N-(1-hydroxypropan-2-yl)-2-(4-(trifluoromethyl)phenyl)quinoline-7-carboxamide], the GI50 was 1000 to 5000 nM.

With `O=C(O)c1ccc2c(OCC3CC3)cc(-c3ccc(C(F)(F)F)cc3)nc2c1` [I-375, 4-(cyclopropylmethoxy)-2-(4-(trifluoromethyl)phenyl)quinoline-7-carboxylic acid], the GI50 was ≤ 1000 nM.

With `COc1cc(-c2ccc(C(F)(F)F)cc2)nc2cc(NC(=O)[C@@H](CO)c3ccccc3)ccc12` [I-376, (R)-3-Hydroxy-N-(4-methoxy-2-(4-(trifluoromethyl)phenyl)quinolin-7-yl)-2-phenylpropanamide], the GI50 lay in the range of 1000 to 5000 nM.

`COc1cc(-c2ccc(C(F)(F)F)cc2)nc2cc(C(=O)NCC(O)C(F)(F)F)ccc12` (stereo not drawn) [I-382, 4-methoxy-N-(3,3,3-trifluoro-2-hydroxypropyl)-2-(4-(trifluoromethyl)phenyl)quinoline-7-carboxamide] returned a GI50 of 1000 to 5000 nM.

For the molecule `COc1cc(-c2ccc(C(F)(F)F)cc2)nc2cc(NS(C)(=O)=O)ccc12` [I-383, N-(4-methoxy-2-(4-(trifluoromethyl)phenyl)quinolin-7-yl)methanesulfonamide], the 50% growth inhibitory concentration (GI50) fell in the range of 1000 to 5000 nM.

Consider `C=CC(=O)Nc1ccc2c(OC)cc(-c3ccc(C(C)(C)C)cc3)nc2c1` [I-384, N-(2-(4-(Tert-butyl)phenyl)-4-methoxyquinolin-7-yl)acrylamide], for which the concentration for 50% growth inhibition (GI50) is ≤ 1000 nM.

`CC(C)(C)c1ccc(-c2nc3cc(C(=O)NCCOCCOCCN)ccc3n3cccc23)cc1` [I-385, N-(2-(2-(2-Aminoethoxy)ethoxy)ethyl)-4-(4-(tert-butyl)phenyl)pyrrolo[1,2-a]quinoxaline-7-carboxamide] came in with a GI50 of 5000 to 10000 nM.

Regarding `C[C@H](CO)NC(=O)c1ccc2c(C3CC3)cc(-c3ccc(C(F)(F)F)cc3)nc2c1` [I-386, (R)-4-cyclopropyl-N-(1-hydroxypropan-2-yl)-2-(4-(trifluoromethyl)phenyl)quinoline-7-carboxamide], the 50% growth inhibitory concentration (GI50) is ≤ 1000 nM.

On to `O=C(O)c1ccc2c(C3CC3)cc(-c3ccc(C(F)(F)F)cc3)nc2c1` [I-387, 4-cyclopropyl-2-(4-(trifluoromethyl)phenyl)quinoline-7-carboxylic acid], for which the GI50 is ≤ 1000 nM.

`Cn1cnc(-c2cc(-c3ccc(C(F)(F)F)cc3)nc3cc(C(=O)O)ccc23)c1` [I-388, 4-(1-methyl-1H-imidazol-4-yl)-2-(4-(trifluoromethyl)phenyl)quinoline-7-carboxylic acid] returned a GI50 of 1000 to 5000 nM.

As to `O=C(O)c1ccc2c(-c3cnco3)cc(-c3ccc(C(F)(F)F)cc3)nc2c1` [I-389, 4-(oxazol-5-yl)-2-(4-(trifluoromethyl)phenyl)quinoline-7-carboxylic acid], the GI50 was ≤ 1000 nM.

As a reminder, the GI50 is the concentration giving 50% growth inhibition. Higher therefore signals less potent growth inhibition.
